From PMC10828444, “Selective inhibition of overactive warmth-sensitive Ca^2+-permeable TRPV3 channels by antispasmodic agent flopropione for alleviation of skin inflammation” (The Journal of Biological Chemistry, 2023) come the findings set out here.

In one test the target is T1, hTRPV1 (Homo sapiens, UniProt Q8NER1).
T1 construct: expressed in transfected cells; host or cells: HEK293
As to the kind of experiment: Whole-cell patch-clamp of TRPV1 currents evoked by capsaicin in HEK293 cells. The following applies: flopropione 100 μM, 1 μM capsaicin. The class given is cell-based. The procedure:
(§1) HEK293 cells were cultured in Dulbecco’s modified Eagle’s medium (DMEM, Gibco) containing 4.5 g/L D-glucose supplemented with 10% fetal bovine serum based at 37 °C with 5% CO2. For whole-cell patch-clamp recordings, cells were grown in glass coverslips for 24 h before transient transfections with 3000 ng cDNAs of hTRPV3 (gene accession number BC104866.1), hTRPV1 (accession number NM_080704.3), mTRPV2 (accession number NM_011706.2), hTRPV4 (accession number NM_021625.5), hTRPA1 (accession number NM_007332.3) and hTRPM8 (accession number NM_024080.5) into HEK293 cells grown in a 35-mm cell culture dish using Lipofectamine 2000 (Invitrogen). Cells were used 18 ∼ 24 h after transfection. All WT or mutant hTRPV3 plasmids were validated by DNA sequencing.
(§2) Whole-cell patch clamp recordings of wild-type and mutants were carried out at room temperature using the HEKA EPC10 amplifier powered by PatchMaster software (HEKA) or MultiClamp 700B amplifier driven by Clampex 11.0.3 software. The borosilicate glass pipettes were pulled and fire-polished to 3∼6 MΩ using a DMZ universal electrode puller (Zeitz-Instruments, GmbH). Pipette solution and bath solution both contained (in mM): 130 NaCl, three HEPES, and 0.2 EDTA (pH = 7.4). Cell membrane potential was held at 0 mV, currents were recorded at a voltage ramp from −100 to +100 mV for 500-ms and analyzed at ±80 mV.
For orientation: In patch-clamp work, channel activity is measured electrically.

For the next test, the target named is T2, TRPV3-E501A mutant (Homo sapiens, UniProt Q8NET8, E501A).
T2 construct: expressed in transfected cells; host or cells: HEK293
T2 sequence (Q8NET8 1-790 E501A): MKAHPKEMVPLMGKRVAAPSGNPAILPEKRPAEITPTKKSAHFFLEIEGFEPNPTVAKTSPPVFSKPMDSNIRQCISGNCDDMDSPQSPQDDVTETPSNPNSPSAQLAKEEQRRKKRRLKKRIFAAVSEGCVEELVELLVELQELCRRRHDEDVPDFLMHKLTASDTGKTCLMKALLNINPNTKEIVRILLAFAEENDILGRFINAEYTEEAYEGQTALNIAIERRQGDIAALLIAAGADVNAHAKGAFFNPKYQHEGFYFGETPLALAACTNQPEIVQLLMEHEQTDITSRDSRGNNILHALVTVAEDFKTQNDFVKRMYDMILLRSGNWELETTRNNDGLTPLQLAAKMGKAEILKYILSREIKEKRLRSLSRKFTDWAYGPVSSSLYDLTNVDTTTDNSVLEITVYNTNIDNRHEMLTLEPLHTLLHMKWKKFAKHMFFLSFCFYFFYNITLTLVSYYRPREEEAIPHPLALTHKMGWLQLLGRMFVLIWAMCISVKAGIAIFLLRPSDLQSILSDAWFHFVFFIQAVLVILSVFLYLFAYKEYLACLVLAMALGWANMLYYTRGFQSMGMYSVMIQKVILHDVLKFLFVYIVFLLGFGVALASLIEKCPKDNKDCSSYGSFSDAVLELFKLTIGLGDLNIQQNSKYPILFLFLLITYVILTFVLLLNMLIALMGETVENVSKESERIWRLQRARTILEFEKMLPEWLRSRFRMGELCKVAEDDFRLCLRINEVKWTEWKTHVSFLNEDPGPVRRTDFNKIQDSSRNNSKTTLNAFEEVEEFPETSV
Kind of test: Whole-cell and single-channel recordings of TRPV3-E501A mutant. The class given is cell-based. The following applies: 100 μM flopropione whole-cell (50 μM 2-APB); 50 μM single-channel (30 μM 2-APB). The procedure:
as §1
as §2, with “mV. […]” for “mV.”

T1 sequence (Q8NER1 whole entry): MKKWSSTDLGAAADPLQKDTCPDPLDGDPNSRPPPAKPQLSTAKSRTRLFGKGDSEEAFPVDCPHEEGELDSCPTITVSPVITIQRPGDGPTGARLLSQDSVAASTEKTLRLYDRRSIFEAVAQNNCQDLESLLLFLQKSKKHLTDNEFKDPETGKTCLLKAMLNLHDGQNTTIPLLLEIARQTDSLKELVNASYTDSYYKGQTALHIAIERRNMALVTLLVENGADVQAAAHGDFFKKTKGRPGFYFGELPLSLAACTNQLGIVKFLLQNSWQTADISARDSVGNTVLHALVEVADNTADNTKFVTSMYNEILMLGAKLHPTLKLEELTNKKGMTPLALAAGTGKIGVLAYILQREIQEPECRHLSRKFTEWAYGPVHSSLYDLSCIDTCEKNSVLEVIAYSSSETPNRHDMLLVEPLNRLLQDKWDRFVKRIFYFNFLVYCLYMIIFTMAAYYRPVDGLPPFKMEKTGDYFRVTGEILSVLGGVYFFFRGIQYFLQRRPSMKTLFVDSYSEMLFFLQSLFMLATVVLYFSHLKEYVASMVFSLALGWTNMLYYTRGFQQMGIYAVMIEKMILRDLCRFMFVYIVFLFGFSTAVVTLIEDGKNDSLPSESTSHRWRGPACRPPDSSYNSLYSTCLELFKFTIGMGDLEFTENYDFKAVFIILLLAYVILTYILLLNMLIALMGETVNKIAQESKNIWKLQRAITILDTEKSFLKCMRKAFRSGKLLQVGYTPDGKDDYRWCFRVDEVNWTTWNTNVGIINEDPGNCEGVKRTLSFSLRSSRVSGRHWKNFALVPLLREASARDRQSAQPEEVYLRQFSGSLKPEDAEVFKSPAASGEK

For `CCC(=O)c1c(O)cc(O)cc1O` [flopropione], the “effect on TRPV1 currents” value on hTRPV1 was “no effect”. Moreover, at TRPV3-E501A mutant, the “effect of E501A mutation on inhibition by flopropione” value was “significantly reduced TRPV3 inhibition”.
